US20240239854A1, “ANTIMICROBIAL PEPTIDES AND MODIFICATIONS THEREOF” (Donald Danforth Plant Science Center, priority 2022, published 2024)
Non-standard residues stand in square brackets, D forms with d. Residues, ends and D or L forms follow the SMILES beside them. No end group written: not given here. Dab = NCC[C@H](N)C(=O)O

How the values were obtained:
P. capsici = experiment: Antifungal MIC assay in SFM culture media (Example 1); assay type: cell-based; details: in vitro, low cationic conditions
F. oxysporum = experiment: as above; assay type: cell-based; details: in vitro, low cationic conditions; F. oxysporum
B. cinerea [1] = details: in vitro, low cationic conditions; B. cinerea
F. graminearum = details: in vitro, low cationic conditions; F. graminearum
Aspergillus fumigatus = experiment: MIC, CLSI M27/M38, half-strength potato dextrose broth (Example 2); assay type: cell-based; details: Table 13
Tricophyton rubrum = experiment: MIC against human nail pathogens (Example 2); assay type: cell-based; details: Table 13
[2] = tested on: Tricophyton metagrophytes; experiment: MIC against human nail pathogens (Example 2); assay type: cell-based; details: Table 13
[3] = tested on: Zymoseptoria tritici IPO323; assay type: cell-based
Botrytis cinerea T4 = assay type: cell-based
Z. tritici = experiment: Wheat - Zymoseptoria tritici in planta spray assay, curative; assay type: in vivo; details: wheat plants; 48 μM spray 24 hours after Z. tritici spores; 21 dpi
[4] = tested on: Fusarium graminearum PH-1; assay type: cell-based; details: MIC Day 1; 96-well plate, resazurin cell viability
B. cinerea [5] = experiment: Pepper - Botrytis cinerea in planta spray assay, preventative and curative; assay type: in vivo; details: pepper plants

NCC[C@H](NC(=O)CNC(=O)[C@@H](N)Cc1ccccc1)C(=O)N[C@@H](CS)C(=O)N[C@@H](CCN)C(=O)NCC(=O)N[C@@H](Cc1ccccc1)C(=O)N[C@@H](CCN)C(=O)N[C@@H](CCN)C(=O)N[C@@H](CCN)C(=O)N[C@@H](CS)C(=O)N[C@@H](Cc1ccccc1)C(=O)N[C@@H](CS)C(=O)N[C@@H](Cc1c[nH]c2ccccc12)C(=O)N[C@@H](CCN)C(=O)N[C@@H](Cc1c[nH]c2ccccc12)C(=O)N[C@@H](CS)C(N)=O [GMA4C_V5A, FG(Dab)C(Dab)GF(Dab)(Dab)(Dab)CFCW(Dab)WC-NH2] (H-FG[Dab]C[Dab]GF[Dab][Dab][Dab]CFCW[Dab]WC-NH2; N-terminus assumed)
Antifungal activity relative to the wild-type GMA4C_AC control (P. capsici): equivalent
Antifungal activity relative to the wild-type GMA4C_AC control (F. oxysporum): equivalent
Antifungal activity relative to the wild-type GMA4C_AC control (B. cinerea [1]): equivalent
Antifungal activity relative to the wild-type GMA4C_AC control (F. graminearum): equivalent

OeDef1_V3: OeDef1 variant of Table 13, printed with SEQ ID NO: 769, the number of GMAOe1C_V3 (GACLKNRHSKHYGWFWYYRHCY; not fully specified (C-terminus); cysteine pairing not given here)
MIC Aspergillus fumigatus (36843) (Aspergillus fumigatus): >7.9 µM
MIC Tricophyton rubrum (23014) (Tricophyton rubrum): 4.0 µM
MIC Tricophyton metagrophytes (26103) [2]: 4.0 µM

PD101.1.1: Nicotiana sylvestris wild-type defensin SEQ ID NO: 624 with an N-terminal alanine, expressed in Pichia pastoris (KLCRRRSKTFSSSCFISEHCDKECKEKEGAKRGMCIKKSIFGRFCYCFHKCK; N-terminal alanine; listed as Nicotiana sylvestris)
MIC against Z. tritici on day 1 [3]: 0.75 µM
MIC against Z. tritici on day 7 [3]: 1.5 µM
MIC against Z. tritici on day 14 [3]: 1.5 µM
Z. tritici IPO323 MIC Day 1 [3]: 0.75 µM
Z. tritici IPO323 MIC Day 7 [3]: 1.5 µM
Z. tritici IPO323 MIC Day 14 [3]: 1.5 µM
B. cinerea T4 MIC Day1 (Botrytis cinerea T4): 1.5 µM
Curative protection against Septoria tritici blotch (STB) (Z. tritici): reduction of STB disease symptoms
F. graminearum PH-1 MIC Day1 [4]: 1.5 µM

PD122.1.1: Setaria italica wild-type defensin SEQ ID NO: 715 with an N-terminal alanine, expressed in Pichia pastoris (RRCVSQSHKFVGSCMRKSNCQHVCQTEGFPWGECRFHGGLLRRCFCNKLC; N-terminal alanine; listed as Setaria italica)
Z. tritici IPO323 MIC Day 1 [3]: 0.75 µM
Z. tritici IPO323 MIC Day 7 [3]: 2.5 µM
Z. tritici IPO323 MIC Day 14 [3]: 3 µM
Curative protection against gray mold disease (B. cinerea [5]; 24 μM spray 24 hours after B. cinerea spores, 5 dpi): reduction of gray mold disease symptoms
Preventative protection against gray mold disease (B. cinerea [5]; 24 μM spray 24 hours before B. cinerea spores, 96 hpi): reduction of gray mold disease symptoms
B. cinerea T4 MIC Day1 (Botrytis cinerea T4): 0.75 µM
F. graminearum PH-1 MIC Day1 [4]: 1.5 µM
